In ChEMBL document CHEMBL3045941, “-Methyl as a bioisostere for the oxygen link between the aromatic rings of aryloxyphenoxypropionate herbicides” (Bioorg Med Chem Lett, 1997) one finds Activity data, which are given here for five compounds.

Calls of active or inactive are those of the source. The rule behind the calls is not given here.

Data set [1] deals with Echinochloa crus-galli. The data set can be described thus: Post-emergent herbicidal activity against Echinochloa crus-galli (barnyard grass) at <2 g/ha measured after 13 days under green house conditions. It counts as functional, organism-based.
The test system of data set [2] is Echinochloa crus-galli. The data set can be described thus: Post-emergent herbicidal activity against Echinochloa crus-galli (barnyard grass) at 500 g/ha measured after 13 days under green house conditions. It counts as functional.
Data set [3] concerns Setaria viridis. The experiment in a line: Post-emergent herbicidal activity against Setaria viridis (green foxtail) at <2 g/ha measured after 13 days under green house conditions. It counts as functional, organism-based.
Data set [4] has as its system Sorghum halepense. The experiment in a line: Post-emergent herbicidal activity against Sorghum halepense (Johnson grass) at 500 g/ha measured after 13 days under green house conditions. It counts as functional.
The subject of data set [5] is Avena fatua. The data set can be described thus: Post-emergent herbicidal activity against Avena fatua at <2 g/ha measured after 13 days under green house conditions. It counts as functional, organism-based.
Data set [6] relates to Avena fatua. The experiment in a line: Post-emergent herbicidal activity against Avena fatua at 500 g/ha measured after 13 days under green house conditions. It counts as functional.
Data set [7] deals with Triticum aestivum. The experiment in a line: Phytotoxicity against Triticum aestivum (wheat) at two to four-leaf growth stage at <2 g/ha measured after 13 days under green house conditions. The data set is classed as organism-based. The conditions noted are these: in vivo, 312 h.
For data set [8], the system named is Triticum aestivum. The data set can be described thus: Phytotoxicity against Triticum aestivum (wheat) plant at two to four-leaf growth stage at 500 g/ha measured after 13 days under green house conditions. The conditions noted are these: in vivo, 312 h. It counts as organism-based.
The test system of data set [9] is Oryza sativa. The experiment in a line: Phytotoxicity against Oryza sativa (rice) plant at two to four-leaf growth stage at <2 g/ha measured after 13 days under green house conditions. The data set is classed as organism-based. The following applies: in vivo, 312 h.
Data set [10] concerns Sorghum halepense. The data set can be described thus: Post-emergent herbicidal activity against Sorghum halepense (Johnson grass) at <2 g/ha measured after 13 days under green house conditions. It counts as functional, organism-based.
The test system of data set [11] is Setaria viridis. The data set can be described thus: Post-emergent herbicidal activity against Setaria viridis (green foxtail) at 500 g/ha measured after 13 days under green house conditions. The data set is classed as functional.
The test system of data set [12] is Oryza sativa. The experiment in a line: Phytotoxicity against Oryza sativa (rice) plant at two to four-leaf growth stage at 500 g/ha measured after 13 days under green house conditions. The data set is classed as organism-based. The conditions noted are these: in vivo, 312 h.
Data set [13] concerns Zea mays. The data set can be described thus: Phytotoxicity against Zea mays (maize) plant at two to four-leaf growth stage at <2 g/ha measured after 13 days under green house conditions. It counts as organism-based. The conditions noted are these: in vivo, 312 h.
Data set [14] has as its system Zea mays. The experiment in a line: Phytotoxicity against Zea mays (maize) plant at two to four-leaf growth stage at 500 g/ha measured after 13 days under green house conditions. It counts as organism-based. The conditions noted are these: in vivo, 312 h.

As for `COC(=O)C(C)Oc1ccc(Oc2ncc3cc(Cl)ccc3n2)cc1` (racemic), the result in the data set on Echinochloa crus-galli [1], in the data set on Setaria viridis [3], in the data set on Avena fatua [5] and in the data set with Sorghum halepense [10] was inactive. For the same compound, the Activity in the data set on Echinochloa crus-galli [2] was 85%; with Sorghum halepense [4], 85%; in the data set on Avena fatua [6], 0%; in the data set with Triticum aestivum [7], “Non-toxic”; in the data set with Triticum aestivum [8], 0%; with Oryza sativa [9], “Non-toxic”. Moreover, the Activity is on record as 65% in the data set on Setaria viridis [11], 0% in the data set on Oryza sativa [12], “Non-toxic” in the data set with Zea mays [13] and 15% in the data set on Zea mays [14].
Regarding `CCOC(=O)C(C)Oc1ccc(Oc2cc3ccc(Cl)cc3cn2)cc1` (racemic), the result in the data set on Echinochloa crus-galli [1], with Setaria viridis [3], in the data set with Avena fatua [5] and with Sorghum halepense [10] was inactive. Moreover, the Activity in the data set on Echinochloa crus-galli [2] is 100%; with Sorghum halepense [4], 100%; with Avena fatua [6], 85%; in the data set on Triticum aestivum [7] it was “Non-toxic”; in the data set with Triticum aestivum [8], 85%; with Oryza sativa [9], “Non-toxic”. Moreover, the Activity with Setaria viridis [11] is given as 85%; with Oryza sativa [12] it was 70%; with Zea mays [13] it was “Non-toxic”; with Zea mays [14], 70%.
Consider `COC(=O)C(C)Oc1ccc(N(C)c2ccc(Cl)cc2Cl)cc1` (racemic), for which the outcome in the data set with Echinochloa crus-galli [1], with Setaria viridis [3], in the data set with Avena fatua [5] and in the data set on Sorghum halepense [10] was inactive. Moreover, the Activity in the data set with Echinochloa crus-galli [2] is 85%; in the data set on Sorghum halepense [4], 85%; in the data set with Avena fatua [6] it was 0%; in the data set on Triticum aestivum [7] it was “Non-toxic”; with Triticum aestivum [8] it was 70%; in the data set on Oryza sativa [9] it was “Non-toxic”. Besides, the Activity in the data set on Setaria viridis [11] was 85%; with Oryza sativa [12], 0%; with Zea mays [13], “Non-toxic”; with Zea mays [14], 30%.
For `COC(=O)C(C)Oc1ccc(Oc2nnc3cc(Cl)ccc3n2)cc1` (racemic), the outcome with Echinochloa crus-galli [1], with Setaria viridis [3], with Avena fatua [5] and with Sorghum halepense [10] was inactive. Moreover, the Activity with Echinochloa crus-galli [2] is listed as 50%; in the data set with Sorghum halepense [4] it was 30%; in the data set on Avena fatua [6] it was 0%; in the data set with Triticum aestivum [7], “Non-toxic”; in the data set on Triticum aestivum [8] it was 0%; in the data set on Oryza sativa [9] it was “Non-toxic”. In addition, the Activity with Setaria viridis [11] is 50%; with Oryza sativa [12], 0%; in the data set on Zea mays [13], “Non-toxic”; in the data set with Zea mays [14] it was 0%.
In the case of `COC(=O)C(C)Oc1ccc(Oc2ccc3cc(Cl)ccc3n2)cc1` (racemic), the outcome in the data set on Echinochloa crus-galli [1], with Setaria viridis [3], in the data set with Avena fatua [5] and in the data set with Sorghum halepense [10] was inactive. Moreover, the Activity with Echinochloa crus-galli [2] is 100%; in the data set with Sorghum halepense [4], 100%; with Avena fatua [6], 85%; in the data set with Triticum aestivum [7] it was “Non-toxic”; with Triticum aestivum [8], 85%; in the data set on Oryza sativa [9], “Non-toxic”. For the same compound, the Activity with Setaria viridis [11] is recorded as 100%; in the data set on Oryza sativa [12], 85%; in the data set on Zea mays [13], “Non-toxic”; in the data set on Zea mays [14], 100%.
